Source: patent US9902938B2, “Method for inducing exocrine pancreatic cells” (Kyoto University, priority 2012, dated 2018)

Columns and labels:
[1] = test system: PDX1-positive pancreatic precursor cells; assay: Induction of exocrine pancreatic cells by modified protocol (Example 2, immunostaining with anti-Amylase); type: cell-based; details: Stage 3 culture 2 days, 1 μM CHAP108 with 300 nM ILV; human ES cells (KhES3); DMSO negative control 2.8%
Procedure: ES cells (KhES3) dispersed into single cells were induced to differentiate into exocrine pancreatic cells according to modified protocols shown in FIG. 1. Specifically, the following 5 steps were carried out.
(§1) (Stage 1) ES cells were suspended in a RPMI1640 medium containing 2% B27 and Penicillin/Streptomycin, and then seeded in a matrigel-coated 24-well plate at 250,000/well. 100 ng/mL Activin A and 1 μM CHIR99021 were added to adjust the amount of the medium to be 0.5 mL/well, and then cells were cultured for 4 days.
(Stage 2-1) The medium was substituted with DMEM containing 50 ng/ml […], 0.25 μM KAAD (3-Keto-N-(aminoethyl-aminocaproyl-dihydro-cinnamoyl))-cyclopamine, 1% L-Glutamin, 2% B27, 50 mU/L Penicillin and 50 μg/L Streptomycin, and then cells were cultured for 1 day.
(Stage 2-2) The medium was substituted with DMEM containing 2 μM retinoic acid, 50 ng/ml FGF10, 0.25 μM KAAD-cyclopamine, 1% L-Glutamin, 2% B27, 50 mU/L Penicillin and […] Streptomycin, and then cells were cultured for 2 days.
(Stage 2-3) The medium was substituted with DMEM containing 50 ng/ml FGF10, 300 nM (−)-indolactam V (ILV), 1% L-Glutamin, 2% B27, 50 mU/L Penicillin and 50 μg/L Streptomycin, and then cells were cultured for 2 days. […]

[2] = test system: PDX1-positive pancreatic precursor cells; assay: Induction of exocrine pancreatic cells from human ES cell-derived pancreatic precursor cells (Example 1, anti-amylase immunostaining); type: cell-based; details: human ES cells (KhES3)
Procedure: Human ES cells (KhES3) received from Kyoto University (Kyoto, Japan) were cultured by a conventional method (Mori H, et al., Biochem Biophys Res Commun. 2006, 345, 926-932). ES cells were cultured on 6-cm dishes to 80%-90% confluency, and then 1 mL of Accutase™ was added to disperse ES cells into single cells.
ES cells dispersed into single cells were induced to differentiate into exocrine pancreatic cells according to protocols shown in FIG. 1. Specifically, the following 5 steps were carried out.
as §1, with “100 ng/ml,” for “100 ng/mL”, “for […]” for “for 4”
(Stage 2-1) The medium was substituted with DMEM containing 50 ng/ml FGF10, 0.25 μM KAAD (3-Keto-N-(aminoethyl-aminocaproyl-dihydro-cinnamoyl))-cyclopamine, 1% L-Glutamin, 2% B27, 50 mU/L Penicillin and 50 μg/L Streptomycin, and then cells were cultured for 1 day.
(Stage 2-2) The medium was substituted with DMEM containing 2 μM retinoic acid, 50 ng/ml FGF10, 0.25 μM KAAD-cyclopamine, 1% L-Glutamin, 2% B27, 50 mU/L Penicillin and 50 μg/L Streptomycin, and then cells were cultured for 2 days.
(Stage 2-3) The medium was substituted with DMEM containing 50 ng/ml FGF10, 300 nM (−)-indolactam V (ILV), 1% L-Glutamin, 2% B27, 50 mU/L Penicillin and 50 μg/L Streptomycin, and then cells were cultured for 4 days.
(Stage 3) The medium was substituted with DMEM containing 1 μM CHAP108 (formula 10), 300 nM ILV, 1% L-Glutamin, 2% B27, 50 mU/L Penicillin and 50 μg/L. Streptomycin, and then cells were cultured for 4 days or 8 days.
The result obtained by culturing cells for 12 days in Stage 3 with the use of the ligand protein for a Notch signal, 0.5 mg/ml hDLL4 or 0.5 mg/ml hJAG1, instead of CHAP108 was compared with the result obtained by culturing cells for 4 days in Stage 3 with the use of CHAP108. […]

[3] = Stage 3 culture 12 days, 0.5 mg/ml ligand protein instead of CHAP108

Molecule | Amylase positive rate [1] [%] | efficiency for inducing exocrine pancreatic cells ([2]; Stage 3 culture 4 days, 1 μM CHAP108 with 300 nM ILV) [%] | efficiency for inducing exocrine pancreatic cells [2, 3] [%]
CCC(C)C1NC(=O)C(Cc2ccc(OC)cc2)NC(=O)C(CCCCCN(O)C=O)NC(=O)C2CCCCN2C1=O (stereo not shown) [CHAP108] | 56.3 | 21.4 | –
hDLL4: ligand protein for a Notch signal receptor, member of the Delta-like family | – | – | 28.8
hJAG1: ligand protein for a Notch signal receptor, member of the Jagged family | – | – | 27.0
